Assay: Pharmacokinetics of vancomycin after i.v. or pulmonary
Conditions: rabbits, 1 mg/kg i.v. bolus, plasma, LC/MS, non-compartmental, average ± S.D., n = 3; SD

With `CN[C@H](CC(C)C)C(=O)N[C@H]1C(=O)N[C@@H](CC(N)=O)C(=O)N[C@H]2C(=O)N[C@H]3C(=O)N[C@H](C(=O)N[C@H](C(=O)O)c4cc(O)cc(O)c4-c4cc3ccc4O)[C@H](O)c3ccc(c(Cl)c3)Oc3cc2cc(c3O[C@@H]2O[C@H](CO)[C@@H](O)[C@H](O)[C@H]2O[C@H]2C[C@](C)(N)[C@H](O)[C@H](C)O2)Oc2ccc(cc2Cl)[C@H]1O` [vancomycin] the “AUC(0-∞)” value was 12135.34 ± 616.52 ng·h/mL, the AUClast was 12069.85 ± 638.15 ng·h/mL and the C0 was 5347 ± 4927 ng/mL. For the same compound, the Clearance was 1.376 ± 0.0708 mL/min/kg, the Cmax was 3330 ± 1119 ng/mL and the Half-Life was 3.38 ± 0.43 h. For the same compound, the Tmax was 0.67 ± 0.29 h and the “Volume of Dist.” value was 0.40389 ± 0.06483 L/kg.

From paper PMC4943339 (Molecular pharmaceutics, 2015)
